Test results reported in patent US20050203482A1, “Pharmaceutical dispensing apparatus and method” (priority 2004, published 2005).
Converted amounts (≈) assume the structure as drawn.

Assay: physchem
Excerpt: The solvents and co-solvents are listed by percentage of volume.

solubility (aqueous with cosolvent or surfactant or cyclodextrin, solvent 2-P 56%, co-solvent Water 44%, approximate): 56 mg/mL (≈ 71.7 mM)
solubility (aqueous with cosolvent or surfactant or cyclodextrin, solvent 55% Water, co-solvent 45% H-107, approximate): 52 mg/mL (≈ 66.6 mM)
solubility (aqueous with cosolvent or surfactant or cyclodextrin, solvent Ethanol 80%, co-solvent Water 17%, additive Glycerin 3%, approximate): 9 mg/mL (≈ 11.5 mM)
solubility (organic solvent or mixture, solvent 1,5-pentanediol, approximate): < 21.9 mg/mL
solubility (organic solvent or mixture, solvent 2-P 80%, co-solvent Ethanol 20%, approximate): ≥ 75 mg/mL
solubility (organic solvent or mixture, solvent 2-P 100%, approximate): 102 mg/mL (≈ 131 mM)
solubility (organic solvent or mixture, solvent Acetone, approximate): < 30 mg/mL
solubility (organic solvent or mixture, solvent DMSO 80%, co-solvent (EtOH) ethanol alcohol 20%, approximate): 200 mg/mL (≈ 256 mM)
solubility (organic solvent or mixture, solvent Ethanol 100%, approximate): 9 mg/mL (≈ 11.5 mM)
solubility (organic solvent or mixture, solvent Ethyl acetate, approximate): < 16.3 mg/mL
solubility (organic solvent or mixture, solvent Ethylene glycol (LEG), approximate): < 16.3 mg/mL
solubility (organic solvent or mixture, solvent Glycerine, approximate): < 14.2 mg/mL
solubility (organic solvent or mixture, solvent Polyethylene glycol 400 90% Absolute ethanol 6%, co-solvent Water 1%, additive Propylene glycol 3%, approximate): 0.25 mg/mL (≈ 0.32 mM)
solubility (organic solvent or mixture, solvent Polyethylene glycols (PEGs), approximate): < 19.3 mg/mL
solubility (water, solvent Water, approximate): 0.024 to 0.07 mg/mL (≈ 0.0307 to 0.0896 mM)
SMILES: C[C@H]1O[C@@H](O[C@H]2[C@@H](O)C[C@H](O[C@H]3[C@@H](O)C[C@H](O[C@H]4CC[C@@]5(C)[C@H](CC[C@@H]6[C@@H]5C[C@@H](O)[C@]5(C)[C@@H](C7=CC(=O)OC7)CC[C@]65O)C4)O[C@@H]3C)O[C@@H]2C)C[C@H](O)[C@@H]1O [Digoxin]
